Molecules are shown by their SMILES.

The experiment deals with T1, TG2 (transglutaminase-2, transglutaminase type 2) (Homo sapiens, UniProt P21980, K598S/K600S/K602S/R601S).
T1 sequence (P21980 1-687 K598S/K600S/R601S/K602S): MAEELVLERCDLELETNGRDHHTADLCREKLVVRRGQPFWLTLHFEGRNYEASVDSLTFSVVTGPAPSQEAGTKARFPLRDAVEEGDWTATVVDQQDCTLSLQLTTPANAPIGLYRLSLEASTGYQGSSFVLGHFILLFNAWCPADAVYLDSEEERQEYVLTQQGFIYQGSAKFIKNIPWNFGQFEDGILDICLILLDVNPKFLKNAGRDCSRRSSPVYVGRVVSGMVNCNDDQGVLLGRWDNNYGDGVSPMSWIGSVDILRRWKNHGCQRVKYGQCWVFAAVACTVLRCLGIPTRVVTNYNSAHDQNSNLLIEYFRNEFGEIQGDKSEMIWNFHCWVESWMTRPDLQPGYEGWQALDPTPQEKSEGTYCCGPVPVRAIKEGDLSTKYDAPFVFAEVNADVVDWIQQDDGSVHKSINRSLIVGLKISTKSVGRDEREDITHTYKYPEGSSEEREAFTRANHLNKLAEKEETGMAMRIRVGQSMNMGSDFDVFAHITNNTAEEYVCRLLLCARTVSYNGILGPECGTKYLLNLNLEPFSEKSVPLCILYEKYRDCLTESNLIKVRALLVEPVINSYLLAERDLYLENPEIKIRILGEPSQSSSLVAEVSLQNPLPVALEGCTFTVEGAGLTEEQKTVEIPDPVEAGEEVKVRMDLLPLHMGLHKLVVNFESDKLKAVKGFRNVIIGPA
The format is biochemical.

Take `Nc1nc2c(ncn2[C@@H]2O[C@H](COP(=O)(O)OP(=O)(O)OP(=O)(O)O)[C@@H](O)[C@H]2O)c(=O)[nH]1` [GTP]: half-maximal inhibition (IC50) required 148 ± 26 µM.

The term IC50 denotes the concentration at which inhibition is half-maximal. A high value points to lower potency.

The record behind these values is paper PMC3365763 (The Journal of Biological Chemistry, 2012).
